Assay results taken from PubChem BioAssay AID342 (DTP/NCI, 2004).
Where “and” joins values, the source holds several entries; their conditions need not be identical. Identical values can stand only once.

Tested on: Swiss mice, Sarcoma 180 sc, mean tumor weight T/C
Assay: NCI In Vivo Anticancer Drug Screen. Data for tumor model Sarcoma 180 (subcutaneous) in Swiss mice
Conditions: endpoint: mean tumor weight, higher = larger tumour
Summary of the method: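 Transplantable tumors were established in mice, compound was given, then survival or tumor size was recorded. The treated value was divided by the vehicle-control value.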

Question: `NC(Cc1ccc(N(CCCl)CCCl)cc1)C(=O)O` (stereo not given) was tested. Which T/C (dose: 0.45 mg/kg/injection, schedule: Q#A X014 (ip), vehicle: carboxymethylcellulose (CMC)) did it give?
Answer: 68 % of control

Question: What about the T/C (dose: 0.62 mg/kg/injection, schedule: Q#A X014 (ip), vehicle: carboxymethylcellulose (CMC)) of the same molecule?
Answer: 83 % of control

Question: And the T/C (dose: 0.81 mg/kg/injection, schedule: Q01DX007 (ip), vehicle: carboxymethylcellulose (CMC))?
Answer: 81 % of control

Question: And the T/C (dose: 0.9 mg/kg/injection, schedule: Q#A X014 (ip), vehicle: carboxymethylcellulose (CMC))?
Answer: 74 % of control

Question: And the T/C (dose: 1.0 mg/kg/injection, schedule: Q#A X014 (ip), vehicle: methylcellulose (MC))?
Answer: 80 % of control

Question: And the T/C (dose: 1.08 mg/kg/injection, schedule: Q#A X014 (ip), vehicle: carboxymethylcellulose (CMC))?
Answer: 76 % of control

Question: And the T/C (dose: 1.25 mg/kg/injection, schedule: Q#A X014 (ip), vehicle: carboxymethylcellulose (CMC))?
Answer: 78 % of control

Question: And the T/C (dose: 1.62 mg/kg/injection, schedule: Q01DX007 (ip), vehicle: carboxymethylcellulose (CMC))?
Answer: 78 % of control

Question: What about the T/C (dose: 1.62 mg/kg/injection, schedule: Q#A X014 (ip), vehicle: carboxymethylcellulose (CMC)) of the same molecule?
Answer: 78 % of control

Question: What about the T/C (dose: 1.8 mg/kg/injection, schedule: Q#A X014 (ip), vehicle: carboxymethylcellulose (CMC)) of the same molecule?
Answer: 60 % of control

Question: What about the T/C (dose: 2.0 mg/kg/injection, schedule: Q#A X014 (ip), vehicle: methylcellulose (MC)) of the same molecule?
Answer: 59 % of control

Question: What about the T/C (dose: 2.16 mg/kg/injection, schedule: Q#A X014 (ip), vehicle: carboxymethylcellulose (CMC)) of the same molecule?
Answer: 51 % of control

Question: And the T/C (dose: 2.5 mg/kg/injection, schedule: Q#A X014 (ip), vehicle: carboxymethylcellulose (CMC))?
Answer: 47 % of control

Question: And the T/C (dose: 2.88 mg/kg/injection, schedule: Q01DX007 (ip), vehicle: carboxymethylcellulose (CMC))?
Answer: 95 % of control

Question: And the T/C (dose: 3.25 mg/kg/injection, schedule: Q01DX007 (ip), vehicle: carboxymethylcellulose (CMC))?
Answer: 32 % of control

Question: And the T/C (dose: 3.25 mg/kg/injection, schedule: Q#A X014 (ip), vehicle: carboxymethylcellulose (CMC))?
Answer: 34 % of control

Question: And the T/C (dose: 3.6 mg/kg/injection, schedule: Q01DX007 (ip), vehicle: carboxymethylcellulose (CMC))?
Answer: 62 % of control

Question: What about the T/C (dose: 3.6 mg/kg/injection, schedule: Q#A X014 (ip), vehicle: carboxymethylcellulose (CMC)) of the same molecule?
Answer: 31 % of control

Question: What about the T/C (dose: 4.0 mg/kg/injection, schedule: Q#A X014 (ip), vehicle: methylcellulose (MC)) of the same molecule?
Answer: 47 % of control

Question: What about the T/C (dose: 4.8 mg/kg/injection, schedule: Q01DX007 (ip), vehicle: carboxymethylcellulose (CMC)) of the same molecule?
Answer: 42 % of control

Question: And the T/C (dose: 5.0 mg/kg/injection, schedule: Q#A X014 (ip), vehicle: carboxymethylcellulose (CMC))?
Answer: 7 % of control

Question: What about the T/C (dose: 7.2 mg/kg/injection, schedule: Q01DX007 (ip), vehicle: carboxymethylcellulose (CMC)) of the same molecule?
Answer: 20 % of control

Question: What about the T/C (dose: 8.0 mg/kg/injection, schedule: Q#A X014 (ip), vehicle: methylcellulose (MC)) of the same molecule?
Answer: 14 % of control

Question: Which T/C (dose: 125.0 mg/kg/injection, schedule: Q01DX007 (ip), vehicle: saline) does the source give for `OCCOCC(F)(F)F` here?
Answer: 100 % of control

Question: What about the T/C (dose: 250.0 mg/kg/injection, schedule: Q01DX007 (ip), vehicle: saline) of the same molecule?
Answer: 101 % of control

Question: What about the T/C (dose: 500.0 mg/kg/injection, schedule: Q01DX007 (ip), vehicle: saline) of the same molecule?
Answer: 63 % of control

Question: `CCCCCCCCCCC(O)CN1CCN(c2ccc(C)cc2)CC1` (stereo not given) was tested. Which T/C (dose: 110.0 mg/kg/injection, schedule: Q01DX007 (ip), vehicle: olive oil, sesame oil, peanut oil) did it give?
Answer: 63 % of control

Question: What about the T/C (dose: 168.0 mg/kg/injection, schedule: Q01DX007 (ip), vehicle: olive oil, sesame oil, peanut oil) of the same molecule?
Answer: 51 % of control

Question: And the T/C (dose: 250.0 mg/kg/injection, schedule: Q01DX007 (ip), vehicle: olive oil, sesame oil, peanut oil)?
Answer: 77 % of control

Question: How did the T/C (dose: 55.0 mg/kg/injection, schedule: Q01DX007 (sc), vehicle: steriod suspending solution) turn out when `CCC(c1ccc2cc(OC)ccc2c1)C(C)(C)C(=O)F` (stereo not given) was run?
Answer: 35 % of control and 52 % of control

Question: What about the T/C (dose: 83.0 mg/kg/injection, schedule: Q01DX007 (sc), vehicle: steriod suspending solution) of the same molecule?
Answer: 31 % of control and 49 % of control

Question: What about the T/C (dose: 125.0 mg/kg/injection, schedule: Q01DX007 (sc), vehicle: steriod suspending solution) of the same molecule?
Answer: 27 % of control and 39 % of control

Question: What about the T/C (dose: 188.0 mg/kg/injection, schedule: Q01DX007 (sc), vehicle: steriod suspending solution) of the same molecule?
Answer: 39 % of control and 40 % of control

Question: With `CCCOc1ccc2c(c1)CC[C@@H]1[C@@H]2CC[C@@]2(C)[C@H]1CC[C@]2(C)O` as the molecule, how does the T/C (dose: 0.5 mg/kg/injection, schedule: Q#A X014 (sc), vehicle: steriod suspending solution) read?
Answer: 110 % of control

Question: What about the T/C (dose: 5.0 mg/kg/injection, schedule: Q#A X014 (sc), vehicle: steriod suspending solution) of the same molecule?
Answer: 63 % of control

Question: And the T/C (dose: 50.0 mg/kg/injection, schedule: Q#A X014 (sc), vehicle: steriod suspending solution)?
Answer: 84 % of control

Question: With `CCCCNc1ncnc2c1cnn2C` as the molecule, how does the T/C (dose: 4.0 mg/kg/injection, schedule: Q01DX007 (ip), vehicle: carboxymethylcellulose (CMC)) read?
Answer: 124 % of control

Question: And the T/C (dose: 8.0 mg/kg/injection, schedule: Q01DX007 (ip), vehicle: carboxymethylcellulose (CMC))?
Answer: 107 % of control and 121 % of control

Question: What about the T/C (dose: 31.0 mg/kg/injection, schedule: Q01DX007 (ip), vehicle: carboxymethylcellulose (CMC)) of the same molecule?
Answer: 92 % of control

Question: And the T/C (dose: 32.0 mg/kg/injection, schedule: Q01DX007 (ip), vehicle: carboxymethylcellulose (CMC))?
Answer: 77 % of control

Question: What about the T/C (dose: 62.0 mg/kg/injection, schedule: Q01DX007 (ip), vehicle: carboxymethylcellulose (CMC)) of the same molecule?
Answer: 112 % of control

Question: What does the source list for `c1ncc2[nH]cnc2n1`?
Answer: T/C (dose: 31.25 mg/kg/injection, schedule: Q#A X014 (ip), vehicle: carboxymethylcellulose (CMC)): 90 % of control; T/C (dose: 31.31 mg/kg/injection, schedule: Q#A X014 (ip), vehicle: carboxymethylcellulose (CMC)): 108 % of control; T/C (dose: 57.5 mg/kg/injection, schedule: Q01DX007 (ip), vehicle: carboxymethylcellulose (CMC)): 70 % of control; T/C (dose: 62.5 mg/kg/injection, schedule: Q#A X014 (ip), vehicle: carboxymethylcellulose (CMC)): 120 % of control; T/C (dose: 62.62 mg/kg/injection, schedule: Q#A X014 (ip), vehicle: carboxymethylcellulose (CMC)): 91 % of control; T/C (dose: 76.65 mg/kg/injection, schedule: Q#A X014 (ip), vehicle: carboxymethylcellulose (CMC)): 120 % of control; T/C (dose: 115.0 mg/kg/injection, schedule: Q01DX007 (ip), vehicle: carboxymethylcellulose (CMC)): 67 % of control; T/C (dose: 115.0 mg/kg/injection, schedule: Q#A X014 (ip), vehicle: carboxymethylcellulose (CMC)): 93 % of control; T/C (dose: 125.0 mg/kg/injection, schedule: Q#A X014 (ip), vehicle: carboxymethylcellulose (CMC)): 59 % of control; T/C (dose: 125.25 mg/kg/injection, schedule: Q#A X014 (ip), vehicle: carboxymethylcellulose (CMC)): 66 % of control; T/C (dose: 153.3 mg/kg/injection, schedule: Q#A X014 (ip), vehicle: carboxymethylcellulose (CMC)): 95 % of control; T/C (dose: 196.4 mg/kg/injection, schedule: Q01DX007 (ip), vehicle: carboxymethylcellulose (CMC)): 88 % of control; T/C (dose: 200.4 mg/kg/injection, schedule: Q01DX007 (ip), vehicle: carboxymethylcellulose (CMC)): 99 % of control; T/C (dose: 230.0 mg/kg/injection, schedule: Q01DX007 (ip), vehicle: carboxymethylcellulose (CMC)): 42 % of control; T/C (dose: 230.0 mg/kg/injection, schedule: Q#A X014 (ip), vehicle: carboxymethylcellulose (CMC)): 39 % of control; T/C (dose: 245.5 mg/kg/injection, schedule: Q01DX007 (ip), vehicle: carboxymethylcellulose (CMC)): 90 % of control; T/C (dose: 250.0 mg/kg/injection, schedule: Q#A X014 (ip), vehicle: carboxymethylcellulose (CMC)): 27 % of control; T/C (dose: 250.5 mg/kg/injection, schedule: Q01DX007 (ip), vehicle: carboxymethylcellulose (CMC)): 111 % of control; T/C (dose: 250.5 mg/kg/injection, schedule: Q#A X014 (ip), vehicle: carboxymethylcellulose (CMC)): 9 % of control; T/C (dose: 327.3 mg/kg/injection, schedule: Q01DX007 (ip), vehicle: carboxymethylcellulose (CMC)): 44 % of control; T/C (dose: 334.0 mg/kg/injection, schedule: Q01DX007 (ip), vehicle: carboxymethylcellulose (CMC)): 68 % of control; T/C (dose: 460.0 mg/kg/injection, schedule: Q01DX007 (ip), vehicle: carboxymethylcellulose (CMC)): 13 % of control; T/C (dose: 491.0 mg/kg/injection, schedule: Q01DX007 (ip), vehicle: carboxymethylcellulose (CMC)): 48 % of control; T/C (dose: 501.0 mg/kg/injection, schedule: Q01DX007 (ip), vehicle: carboxymethylcellulose (CMC)): 12 % of control

Question: How did the T/C (dose: 20.0 mg/kg/injection, schedule: Q01DX007 (ip), vehicle: carboxymethylcellulose (CMC)) turn out when `CC(=O)OCC1OC(n2cnc3c(=S)nc[nH]c32)C(OC(C)=O)C1OC(C)=O` (stereo not given) was run?
Answer: 81 % of control

Question: What about the T/C (dose: 30.0 mg/kg/injection, schedule: Q01DX007 (ip), vehicle: carboxymethylcellulose (CMC)) of the same molecule?
Answer: 75 % of control

Question: What about the T/C (dose: 45.0 mg/kg/injection, schedule: Q01DX007 (ip), vehicle: carboxymethylcellulose (CMC)) of the same molecule?
Answer: 54 % of control

Question: For `Cc1n[nH]c(=O)[nH]c1=O`, which T/C (dose: 500.0 mg/kg/injection, schedule: Q01DX007 (ip), vehicle: other) is on record?
Answer: 95 % of control

Question: What about the T/C (dose: 750.0 mg/kg/injection, schedule: Q01DX007 (ip), vehicle: other) of the same molecule?
Answer: 83 % of control

Question: For `CC1OC(OC2C(CO)OC(O[C@H]3CC[C@@]4(C)C(=CC[C@H]5[C@@H]6C[C@@H]7O[C@@]8(CC[C@H](C)CN8)[C@@H](C)[C@@H]7[C@@]6(C)CC[C@@H]54)C3)C(OC3OC(C)C(O)C(O)C3O)C2O)C(O)C(O)C1O` (stereo not given in full), which T/C (dose: 5.0 mg/kg/injection, schedule: Q01DX007 (ip), vehicle: saline) is on record?
Answer: 51 % of control

Question: And the T/C (dose: 15.0 mg/kg/injection, schedule: Q01DX007 (ip), vehicle: saline)?
Answer: 62 % of control

Question: What about the T/C (dose: 20.0 mg/kg/injection, schedule: Q01DX007 (ip), vehicle: saline) of the same molecule?
Answer: 15 % of control

Question: What about the T/C (dose: 30.0 mg/kg/injection, schedule: Q01DX007 (ip), vehicle: saline) of the same molecule?
Answer: 21 % of control

Question: What about the T/C (dose: 40.0 mg/kg/injection, schedule: Q01DX007 (ip), vehicle: saline) of the same molecule?
Answer: 16 % of control
